Experimental data reported in US10577378B2, “EIF4A-inhibiting compounds and methods related thereto” (eFFECTOR Therapeutics, Inc., priority 2015, dated 2020).
pIC50: −log10 of the molar value.

Test system: MDA-MB-231 human breast cancer cells
Assay: Cell proliferation assay (CellTiter-Glo, 72 hours treatment)
Type: cell-based
Conditions: Homo sapiens; MDA-MB-231 cells, 72 hours at 37° C., CellTiter-Glo; read-out: MDA-MB-231 cell proliferation assay (IC50)
Procedure, shortened: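 IC50 categories: under 100 nM +++, 100–1000 nM ++, above 1000 nM +, derived by sigmoidal curve fitting of CellTiter-Glo luminescence. Cells plated at 2,500 per well, dosed the following day and exposed 72 h at 37 °C versus DMSO control.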

| SMILES | pIC50 |
| --- | --- |
| COC(=O)[C@@]12C[C@@H]1[C@@]1(O)c3ncc(Cl)cc3O[C@@]1(c1ccc(C#N)cc1)[C@@H]2c1ccccc1 (racemic) [25F, Rac-methyl (5aR,6R,6aS,7aS,7bR)-3-chloro-5a-(4-cyanophenyl)-7b-hydroxy-6-phenyl-5a,7,7a,7b-tetrahydrocyclopropa[4′,5′]cyclopenta[1′,2′:4,5]furo[3,2-b]pyridine-6a(6H)-carboxylate] | < 6.00 |
| COc1cncc2c1[C@]1(O)[C@H](O)[C@H](C(=O)N(C)C3CC3)[C@@H](c3ccccc3)[C@]1(c1ccc(Br)cc1)O2 (racemic) [245F, Rac-(4bS,5R,6R,7S,7aR)-7a-(4-bromophenyl)-N-cyclopropyl-4b,5-dihydroxy-4-methoxy-N-methyl-7-phenyl-4b,6,7,7a-tetrahydro-5H-cyclopenta[4,5]furo[2,3-c]pyridine-6-carboxamide] | 6.00 to 7.00 |
| COc1cncc2c1[C@]1(O)[C@@H](CN3CC4(COC4)C3)[C@H](CO)[C@@H](c3ccccc3)[C@]1(c1ccc(C#N)cc1)O2 (racemic) [202F, Rac-4-((4bR,5R,6R,7S,7aR)-5-((2-oxa-6-azaspiro[3.3]heptan-6-yl)methyl)-4b-hydroxy-6-(hydroxymethyl)-4-methoxy-7-phenyl-4b,5,6,7-tetrahydro-7aH-cyclopenta[4,5]furo[2,3-c]pyridin-7a-yl)benzonitrile] | > 7.00 |
| COc1cncc2c1[C@]1(O)[C@@H](CNCc3ccncc3)[C@H](CO)[C@@H](c3ccccc3)[C@]1(c1ccc(C#N)cc1)O2 (racemic) [188F, Rac-4-((4bR,5R,6R,7S,7aR)-4b-hydroxy-6-(hydroxymethyl)-4-methoxy-7-phenyl-5-(((pyridin-4-ylmethyl)amino)methyl)-4b,5,6,7-tetrahydro-7aH-cyclopenta[4,5]furo[2,3-c]pyridin-7a-yl)benzonitrile] | > 7.00 |
| COc1nccc2c1[C@]1(O)[C@H](O)[C@H](CN(C)C)[C@@H](c3ccccc3)[C@]1(c1ccc(C#N)cc1)O2 (racemic) [141F, Rac-4-((5aR,6S,7S,8R,8aS)-7-((dimethylamino)methyl)-8,8a-dihydroxy-1-methoxy-6-phenyl-6,7,8,8a-tetrahydro-5aH-cyclopenta[4,5]furo[3,2-c]pyridin-5a-yl)benzonitrile] | 6.00 to 7.00 |
| COc1nc(Cl)cc2c1[C@]1(O)[C@H](O)[C@H](C(=O)O)[C@@H](c3ccccc3)[C@]1(c1ccc(Br)cc1)O2 (racemic) [295F, rac-(5aR,6S,7R,8R,8aS)-5a-(4-bromophenyl)-3-chloro-8,8a-dihydroxy-1-methoxy-6-phenyl-5a,7,8,8a-tetrahydro-6H-cyclopenta[4,5]furo[3,2-c]pyridine-7-carboxylic acid] | > 7.00 |
| O[C@@]12C=C[C@@H](c3ccccc3)[C@]1(c1ccc(Br)cc1)Oc1cc(Cl)cnc12 (racemic) [133F, Rac-(5aR,6S,8aR)-5a-(4-bromophenyl)-3-chloro-6-phenyl-5a,6-dihydro-8aH-cyclopenta[4,5]furo[3,2-b]pyridin-8a-ol] | < 6.00 |
| COc1cncc2c1[C@]1(O)[C@H](O)[C@H](C(=O)N(C)C)[C@@H](c3ccccc3)[C@]1(c1ccc(Cl)cc1)O2 (racemic) [271F, rac-(4bS,5R,6R,7S,7aR)-7a-(4-chlorophenyl)-4b,5-dihydroxy-4-methoxy-N,N-dimethyl-7-phenyl-4b,6,7,7a-tetrahydro-5H-cyclopenta[4,5]furo[2,3-c]pyridine-6-carboxamide] | 6.00 to 7.00 |
| COc1cncc2c1[C@]1(O)[C@H](O)[C@H](C(=O)N3[C@@H]4CCC[C@H]3CC4)[C@@H](c3ccccc3)[C@]1(c1ccc(Br)cc1)O2 (racemic) [114F, Rac-((1R,5S)-8-azabicyclo[3.2.1]octan-8-yl)((4bS,5R,6R,7S,7aR)-7a-(4-bromophenyl)-4b,5-dihydroxy-4-methoxy-7-phenyl-4b,6,7,7a-tetrahydro-5H-cyclopenta[4,5]furo[2,3-c]pyridin-6-yl)methanone] | > 7.00 |
| N#Cc1ccc([C@@]23Oc4cc(Cl)cnc4[C@]2(O)[C@H](O)[C@H](CN2CCCC2)[C@H]3c2ccccc2)cc1 (racemic) [41Fb, rac-4-((5aR,6S,7S,8R,8aS)-3-chloro-8,8a-dihydroxy-6-phenyl-7-(pyrrolidin-1-ylmethyl)-6,7,8,8a-tetrahydro-5aH-cyclopenta[4,5]furo[3,2-b]pyridin-5a-yl)benzonitrile] | 6.00 to 7.00 |
| COc1nc(C#N)cc2c1[C@]1(O)[C@H](O)[C@H](CN3CC(F)(F)C3)[C@@H](c3ccccc3)[C@]1(c1ccc(C#N)cc1)O2 (racemic) [207Fa, Rac-(5aR,6S,7S,8R,8aS)-5a-(4-cyanophenyl)-7-((3,3-difluoroazetidin-1-yl)methyl)-8,8a-dihydroxy-1-methoxy-6-phenyl-5a,7,8,8a-tetrahydro-6H-cyclopenta[4,5]furo[3,2-c]pyridine-3-carbonitrile] | 6.00 to 7.00 |
| COc1cc2c(c(OC)n1)[C@]1(O)[C@H](O)[C@H](C(=O)N(C)C)[C@@H](c3ccccc3)[C@]1(c1ccc(Br)cc1)O2 (racemic) [229F, rac-(5aR,6S,7R,8R,8aS)-5a-(4-bromophenyl)-8,8a-dihydroxy-1,3-dimethoxy-N,N-dimethyl-6-phenyl-5a,7,8,8a-tetrahydro-6H-cyclopenta[4,5]furo[3,2-c]pyridine-7-carboxamide] | > 7.00 |
| COc1cncc2c1[C@]1(O)[C@H](O)[C@H](CN(C)Cc3cccnc3)[C@@H](c3ccccc3)[C@]1(c1ccc(C#N)cc1)O2 [278F, 4-((4bS,5R,6S,7S,7aR)-4b,5-dihydroxy-4-methoxy-6-((methyl(pyridin-3-ylmethyl)amino)methyl)-7-phenyl-4b,5,6,7-tetrahydro-7aH-cyclopenta[4,5]furo[2,3-c]pyridin-7a-yl)benzonitrile] | 6.00 to 7.00 |
| COc1cncc2c1[C@]1(O)[C@@H](CNC3COC3)[C@H](CO)[C@@H](c3ccccc3)[C@]1(c1ccc(Br)cc1)O2 (racemic) [185F, Rac-(4bR,5R,6R,7S,7aR)-7a-(4-bromophenyl)-6-(hydroxymethyl)-4-methoxy-5-((oxetan-3-ylamino)methyl)-7-phenyl-5,6,7,7a-tetrahydro-4bH-cyclopenta[4,5]furo[2,3-c]pyridin-4b-ol] | > 7.00 |
| COc1cncc2c1[C@]1(O)[C@H](O)[C@H](C(=O)NCC(F)F)[C@@H](c3ccccc3)[C@]1(c1ccc(C(F)(F)F)cc1)O2 (racemic) [285F, Rac-(4bS,5R,6R,7S,7aR)—N-(2,2-difluoroethyl)-4b,5-dihydroxy-4-methoxy-7-phenyl-7a-(4-(trifluoromethyl)phenyl)-4b,6,7,7a-tetrahydro-5H-cyclopenta[4,5]furo[2,3-c]pyridine-6-carboxamide] | 6.00 to 7.00 |
| N#Cc1ccc([C@@]23Oc4cc(Cl)cnc4[C@]2(O)[C@@H](O)C[C@H]3c2ccccc2)cc1 (racemic) [131F, Rac-4-((5aR,6S,8S,8aS)-3-chloro-8,8a-dihydroxy-6-phenyl-6,7,8,8a-tetrahydro-5aH-cyclopenta[4,5]furo[3,2-b]pyridin-5a-yl)benzonitrile] | < 6.00 |
| COc1cncc2c1[C@]1(O)[C@H](O)[C@H](C(=O)N(C)CC(F)(F)F)[C@@H](c3ccccc3)[C@]1(c1ccc(Br)cc1)O2 (racemic) [88F, Rac-(4bS,5R,6R,7S,7aR)-7a-(4-bromophenyl)-4b,5-dihydroxy-4-methoxy-N-methyl-7-phenyl-N-(2,2,2-trifluoroethyl)-4b,6,7,7a-tetrahydro-5H-cyclopenta[4,5]furo[2,3-c]pyridine-6-carboxamide] | > 7.00 |
| COc1cncc2c1[C@]1(O)[C@H](O)[C@H](CNCC(F)(F)F)[C@@H](c3ccccc3)[C@]1(c1ccc(C#N)cc1)O2 [291F, 4-((4bS,5R,6S,7S,7aR)-4b,5-dihydroxy-4-methoxy-7-phenyl-6-(((2,2,2-trifluoroethyl)amino)methyl)-4b,5,6,7-tetrahydro-7aH-cyclopenta[4,5]furo[2,3-c]pyridin-7a-yl)benzonitrile] | 6.00 to 7.00 |
| CN(C)C[C@H]1[C@@H](O)[C@@]2(O)c3ncc(Cl)cc3O[C@@]2(c2ccc(C#N)cc2)[C@@H]1c1ccccc1 [104F, 4-((5aR,6S,7S,8R,8aS)-3-chloro-7-((dimethylamino)methyl)-8,8a-dihydroxy-6-phenyl-6,7,8,8a-tetrahydro-5aH-cyclopenta[4,5]furo[3,2-b]pyridin-5a-yl)benzonitrile] | 6.00 to 7.00 |
| CN(C)C(=O)[C@@H]1[C@@H](c2ccccc2)[C@]2(c3ccc(C#N)cc3)Oc3cc(Cl)cnc3[C@]2(O)[C@]1(C)O (racemic) [33Fa, Rac-(5aR,6S,7R,8R,8aS)-3-chloro-5a-(4-cyanophenyl)-8,8a-dihydroxy-N,N,8-trimethyl-6-phenyl-5a,7,8,8a-tetrahydro-6H-cyclopenta[4,5]furo[3,2-b]pyridine-7-carboxamide] | 6.00 to 7.00 |
| COC(=O)C(C[C@H]1C(=O)[C@@]2(O)c3ncc(Cl)cc3O[C@@]2(c2ccc(Br)cc2)[C@@H]1c1ccccc1)C(=O)OC (racemic) [46F, Rac-dimethyl 2-[[(5aR,6S,7R,8aR)-5a-(4-bromophenyl)-3-chloro-8a-hydroxy-8-oxo-6-phenyl-6,7-dihydrocyclopenta[4,5]furo[1,2-b]pyridin-7-yl]methyl]propanedioate] | < 6.00 |
| CN(C)C(=O)[C@H]1[C@@H](O)[C@@]2(O)c3ccncc3O[C@@]2(c2ccc(C#N)cc2)[C@@H]1c1ccccc1 (single isomer, unassigned) [95F] | 6.00 to 7.00 |
| COc1nc(Cl)cc2c1[C@]1(O)[C@H](O)[C@H](CN3CCCC3)[C@@H](c3ccccc3)[C@]1(c1ccc(C#N)cc1)O2 (racemic) [158Fb, Rac-4-((5aR,6S,7S,8R,8aS)-3-chloro-8,8a-dihydroxy-1-methoxy-6-phenyl-7-(pyrrolidin-1-ylmethyl)-6,7,8,8a-tetrahydro-5aH-cyclopenta[4,5]furo[3,2-c]pyridin-5a-yl)benzonitrile] | > 7.00 |
| COc1ccc([C@@]23Oc4cc(C#N)cnc4[C@]2(O)[C@H](O)[C@H](C(=O)N(C)C)[C@H]3c2ccccc2)cc1 (single isomer, unassigned) [4F] | 6.00 to 7.00 |
